Measured values taken from the supplement of paper PMC10307832.

Legend:
Assay in all cases: relative viability (nuclei count vs DMSO), 5 days (fraction); higher = more cells survive
[1] = compound: O=c1ncccn1[C@@H]1O[C@H](CO)[C@@H](O)[C@H]1O [Zebularine] + NC(=O)Nc1cc(-c2cccc(F)c2)sc1C(=O)N[C@H]1CCCNC1 [AZD7762] (partner 0.2 µM)
In short: (§1)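 One day after seeding in 1536-well plates, lung cancer cell lines were dosed by pin tool. Dosing was either single-drug or a fixed anchor-drug dose plus five library-drug doses (not always all listed) in √10 steps. After 5 days, nuclei were stained in one fix-and-stain step and counted on 4× images, and relative viability is the nuclei count of treated wells over that of vehicle wells, given as the median of duplicate plates.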

[2] = compound: CC(C)CCN1c2nc(Nc3cc(F)c(O)c(F)c3)ncc2N(C)C(=O)C1C [BI-D1870] + CC(C)C[C@H](NC(=O)[C@H](Cc1ccccc1)NC(=O)c1cnccn1)B(O)O [Bortezomib] (partner 0.002 µM)
In short: as §1

[3] = compound: CC(C)CCN1c2nc(Nc3cc(F)c(O)c(F)c3)ncc2N(C)C(=O)C1C [BI-D1870] + C[C@@H](Oc1cc(-c2cnn(C3CCNCC3)c2)cnc1N)c1c(Cl)ccc(F)c1Cl [Crizotinib] (partner 1 µM)
In short: as §1

[4] = compound: O=c1ncccn1[C@@H]1O[C@H](CO)[C@@H](O)[C@H]1O [Zebularine] + CC(C)C[C@H](NC(=O)[C@H](Cc1ccccc1)NC(=O)c1cnccn1)B(O)O [Bortezomib] (partner 0.002 µM)
In short: as §1

Row | Cell Line | relative viability ([1]; first compound 1 µM) | relative viability ([1]; first compound 3.162 µM) | relative viability ([1]; first compound 10 µM) | relative viability ([1]; first compound 31.62 µM) | relative viability ([1]; first compound 100 µM) | relative viability ([2]; first compound 0.04 µM) | relative viability ([2]; first compound 0.1265 µM) | relative viability ([2]; first compound 0.4 µM) | relative viability ([2]; first compound 1.265 µM) | relative viability ([2]; first compound 4 µM) | relative viability ([3]; first compound 0.04 µM) | relative viability ([3]; first compound 0.1265 µM) | relative viability ([3]; first compound 0.4 µM) | relative viability ([3]; first compound 1.265 µM) | relative viability ([3]; first compound 4 µM) | relative viability ([4]; first compound 1 µM) | relative viability ([4]; first compound 3.162 µM) | relative viability ([4]; first compound 10 µM) | relative viability ([4]; first compound 31.62 µM) | relative viability ([4]; first compound 100 µM)
1 | NCI-H441 | 1.37 | 1.27 | 0.536 | 0.418 | 0.369 | 0.749 | 0.535 | 0.796 | 0.777 | 0.71 | 1.01 | 0.696 | 0.925 | 0.738 | 0.448 | 0.355 | 0.278 | 0.352 | 0.235 | 0.245
2 | NCI-H1703 | 0.144 | 0.173 | 0.118 | 0.142 | 0.103 | 0.377 | 0.315 | 0.353 | 0.288 | 0.21 | 1.16 | 0.613 | 0.467 | 0.756 | 0.356 | 0.273 | 0.302 | 0.296 | 0.512 | 0.411
3 | NCI-H1792 | 0.758 | 0.525 | 0.332 | 0.324 | 0.215 | 1.03 | 0.915 | 0.942 | 1.13 | 0.841 | 1.06 | 0.994 | 0.908 | 1.13 | 0.858 | 0.989 | 0.932 | 0.369 | 0.382 | 0.359
4 | Calu-6 | – | – | – | – | – | 0.972 | 0.914 | 1.05 | 0.845 | 0.361 | 0.883 | 0.741 | 0.886 | 0.597 | 0.629 | 1.04 | 0.85 | 0.914 | 0.77 | 0.306
5 | SK-LU-1 | – | – | – | – | – | 1.16 | 1.07 | 1.04 | 1.49 | 0.823 | 1.14 | 0.81 | 0.88 | 0.859 | 0.315 | 1.3 | 0.913 | 0.576 | 0.737 | 0.502
6 | PC-3 [JPC-3] | 0.933 | 0.944 | 0.618 | 0.826 | 0.611 | 0.74 | 0.859 | 0.825 | 0.889 | 0.829 | 1.01 | 0.898 | 1.05 | 1.05 | 0.97 | 0.912 | 0.772 | 0.464 | 0.729 | 0.591
7 | EMC-BAC-2 | 1.19 | 1.2 | 0.792 | 1.2 | 1.15 | 1.18 | 0.964 | 1.02 | 1.09 | 1.05 | 0.847 | 0.739 | 0.726 | 0.853 | 0.835 | 1.1 | 1.09 | 0.732 | 1.09 | 1.11
8 | LK-2 | 0.492 | 0.382 | 0.49 | 0.23 | 0.16 | – | – | – | – | – | 0.187 | 0.233 | 0.232 | 0.274 | 0.264 | – | – | – | – | –
9 | NCI-H2126 | 0.988 | 0.963 | 0.673 | 0.968 | 0.691 | 1.12 | 1.1 | 1.06 | 1.14 | 1.05 | 1.09 | 1.07 | 0.994 | 1.04 | 1.01 | 1.19 | 1.02 | 0.953 | 1.11 | 0.809
